Measurements published in the NIST ThermoML archive (doi:10.1016/j.fluid.2008.03.012).

Test: excess molar enthalpy (molar enthalpy of mixing); xn = mol fraction of the nth substance listed
Conditions: Liquid, Flow calorimetry

CCOC(=O)CC(C)=O [ethyl 3-oxobutanoate] + CO
excess molar enthalpy [kcal/mol]
Conditions	298.15 K	313.15 K	328.15 K
100 kPa, x1 = 0.0998	0.12	0.135	0.146
100 kPa, x1 = 0.2002	0.202	0.227	0.244
100 kPa, x1 = 0.2994	0.256	0.285	0.309
100 kPa, x1 = 0.3505	0.274	0.305	0.332
100 kPa, x1 = 0.3995	0.287	0.318	0.346
100 kPa, x1 = 0.4495	0.295	0.326	0.354
100 kPa, x1 = 0.4998	0.298	0.33	0.357
100 kPa, x1 = 0.5495	0.296	0.326	0.352
100 kPa, x1 = 0.5997	0.288	0.318	0.341
100 kPa, x1 = 0.65	0.275	0.304	0.323
100 kPa, x1 = 0.6995	0.257	0.279	0.299
100 kPa, x1 = 0.7994	0.199	0.211	0.224
100 kPa, x1 = 0.8982	0.111	0.115	0.12
10000 kPa, x1 = 0.0996	0.116	0.133	0.145
10000 kPa, x1 = 0.1999	0.197	0.225	0.244
10000 kPa, x1 = 0.299	0.248	0.283	0.309
10000 kPa, x1 = 0.35	0.265	0.303	0.331
10000 kPa, x1 = 0.399	0.276	0.317	0.346
10000 kPa, x1 = 0.449	0.283	0.325	0.354
10000 kPa, x1 = 0.4993	0.286	0.329	0.356
10000 kPa, x1 = 0.5489	0.283	0.324	0.352
10000 kPa, x1 = 0.5992	0.274	0.317	0.341
10000 kPa, x1 = 0.6495	0.261	0.301	0.322
10000 kPa, x1 = 0.699	0.242	0.273	0.297
10000 kPa, x1 = 0.799	0.182	0.209	0.222
10000 kPa, x1 = 0.898	0.0986	0.113	0.118
